One assay concerns the target human GLP1-R (Homo sapiens, UniProt P43220). Briefly: GLP1-R internalization assay in HEK293 cells. The format is cell-based. The settings on record: for Internalization % TOP: normalized to maximum concentration of GLP-1 (100%).
In assay [1] the target is T1, hGLP-1R (Homo sapiens, UniProt P43220). Briefly: Functional cAMP activation in the presence of 0.1% casein (no HSA). The format is cell-based.
Assay [2] can be described thus: Body weight in diet-induced obese C57BL/6 mice. The format is in vivo. The settings on record: percent of starting weight, DIO mice, mean ± SEM n=5. As to the method: To investigate the effect of the polypeptides as described herein on weight loss, exemplary polypeptides are dosed to C57BL/6 diet-induced obese (DIO) mice. Specifically, DIO male C57BL/6 mice (Taconic, Germantown, NY) maintained on a calorie-rich diet are used in the following studies. Mice are individually housed in a temperature-controlled (24° C.) facility with 12-hour light/dark cycle (lights on 22:00) and free access to food (TD95217) and water. After a minimum of 2 weeks acclimation to the facility, the mice are randomized according to their body weight, so each experimental group of animals would have similar starting body weight. The body weights range from 41 to 50 g. All groups contain 5 mice. […] Treatments are administered by subcutaneous (SC) injection (10 mL/kg) to ad libitum fed DIO mice 30 to 90 minutes prior to the onset of the dark cycle either once daily (QD) or once every 3 days (Q3D) for 9-16 days. Body weight and food intake are measured daily throughout the study. Body weight is presented as percent of the starting weight. […] Data are presented as mean±SEM of 5 animals per group in Table 7 below. Statistical analysis is performed using repeated measures ANOVA, followed by Dunnett's method comparison test.

Assay [3] concerns the target T2, hGIPR (Homo sapiens, UniProt P48546).
T2 sequence (P48546 22-466): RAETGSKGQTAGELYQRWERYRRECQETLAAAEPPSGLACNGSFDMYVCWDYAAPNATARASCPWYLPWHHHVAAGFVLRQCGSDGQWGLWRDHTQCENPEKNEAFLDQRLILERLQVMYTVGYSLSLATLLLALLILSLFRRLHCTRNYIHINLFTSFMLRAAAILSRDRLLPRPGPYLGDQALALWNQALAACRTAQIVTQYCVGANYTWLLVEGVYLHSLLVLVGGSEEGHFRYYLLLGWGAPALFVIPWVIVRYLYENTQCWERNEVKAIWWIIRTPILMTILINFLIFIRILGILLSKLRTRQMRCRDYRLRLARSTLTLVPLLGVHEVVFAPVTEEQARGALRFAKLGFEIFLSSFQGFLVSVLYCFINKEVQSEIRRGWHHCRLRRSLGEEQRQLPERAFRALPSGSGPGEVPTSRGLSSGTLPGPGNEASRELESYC
Briefly: Functional cAMP activation in the presence of 0.1% casein (no HSA). The format is cell-based.

The target in assay [4] is T1, hGLP-1R. The assay can be described thus: Functional cAMP activity in the presence of 1% HSA. The format is cell-based.
The target of another assay is human GcgR (Homo sapiens, UniProt P47871). Briefly: Functional cAMP activity in the presence of 1% HSA. It is filed as cell-based.
In the next assay the target is hGcgR (Homo sapiens, UniProt P47871). The assay can be described thus: Functional cAMP activation in the presence of 0.1% casein (no HSA). The format is cell-based.
Assay [5] concerns the target T2, hGIPR. Briefly: Functional cAMP activity in the presence of 1% HSA. The format is cell-based.
The mark [6] stands for this setting: HEK293 cells expressing SNAP-GLP-1R, read-out: GLP1R Internalization EC50.
[7] abbreviates: in the presence of 0.1% casein (no HSA), geometric mean, read-out: Relative cAMP EC50, hGLP-1R.
Setting [8] is: in the presence of 0.1% casein (no HSA), geometric mean, read-out: Relative cAMP EC50, hGIPR.
[9] abbreviates: read-out: cAMP Rel EC50, hGLP-1R.
The mark [10] stands for this setting: in the presence of 0.1% casein (no HSA), geometric mean, read-out: Relative cAMP EC50, hGcgR.

pEC50: −log10 of the molar value. Read-outs that look alike come from different tables or passages of the source. Marks after values point to notes of the source that are not given here. Starred links: 1 amine or outer side, 2 acyl side, 3 side chain; linkers in the order of their positions; H or OH if unused. Non-standard residues stand in square brackets, D forms with d. Groups on a side chain read outwards from the residue. *: point of attachment. C20 diacid = O=C(O)CCCCCCCCCCCCCCCCCCC(=O)*; C18 diacid = O=C(O)CCCCCCCCCCCCCCCCC(=O)*; αMePhe(2-F) = C[C@](N)(Cc1ccccc1F)C(=O)O; γGlu = O=C(O)[C@H](CCC(=O)[*:2])N[*:1]; αMeY = C[C@](N)(Cc1ccc(O)cc1)C(=O)O; 4Pal = N[C@@H](Cc1ccncc1)C(=O)O; αMeL = CC(C)C[C@](C)(N)C(=O)O; αMeS = C[C@](N)(CO)C(=O)O; Orn = NCCC[C@H](N)C(=O)O; AEEA = NCCOCCOCC(=O)O; Aib = CC(C)(N)C(=O)O
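Wherever Relative cAMP EC50, hGIPR is given: intracellular cAMP rise after 30 min at 37 °C read by HTRF against a standard curve, scaled between buffer alone (0%) and top control ligand concentration (100%), four-parameter fit.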
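Wherever Relative cAMP EC50, hGLP-1R is given: intracellular cAMP rise after 30 min at 37 °C read by HTRF, normalized between buffer only (0%) and maximal control ligand (100%), four-parameter variable-slope fit.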
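Wherever Relative cAMP EC50, hGcgR is given: intracellular cAMP rise after 30 min at 37 °C, read by HTRF against a cAMP standard curve, scaled from buffer only (0%) to maximal control ligand response (100%).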

Sequence of human GcgR (P47871 26-477): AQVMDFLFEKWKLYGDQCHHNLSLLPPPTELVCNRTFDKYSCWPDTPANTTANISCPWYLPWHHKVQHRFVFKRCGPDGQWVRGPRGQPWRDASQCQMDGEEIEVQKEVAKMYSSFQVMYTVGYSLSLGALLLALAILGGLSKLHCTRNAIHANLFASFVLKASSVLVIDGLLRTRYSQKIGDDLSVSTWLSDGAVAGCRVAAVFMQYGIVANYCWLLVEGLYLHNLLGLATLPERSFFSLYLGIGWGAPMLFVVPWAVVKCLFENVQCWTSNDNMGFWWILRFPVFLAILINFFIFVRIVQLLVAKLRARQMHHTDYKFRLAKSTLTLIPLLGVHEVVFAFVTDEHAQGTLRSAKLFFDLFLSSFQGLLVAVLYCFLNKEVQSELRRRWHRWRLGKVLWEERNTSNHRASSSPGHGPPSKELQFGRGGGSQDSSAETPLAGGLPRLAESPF
Sequence of hGcgR (P47871 26-477): as above
T1 sequence (P43220 24-463): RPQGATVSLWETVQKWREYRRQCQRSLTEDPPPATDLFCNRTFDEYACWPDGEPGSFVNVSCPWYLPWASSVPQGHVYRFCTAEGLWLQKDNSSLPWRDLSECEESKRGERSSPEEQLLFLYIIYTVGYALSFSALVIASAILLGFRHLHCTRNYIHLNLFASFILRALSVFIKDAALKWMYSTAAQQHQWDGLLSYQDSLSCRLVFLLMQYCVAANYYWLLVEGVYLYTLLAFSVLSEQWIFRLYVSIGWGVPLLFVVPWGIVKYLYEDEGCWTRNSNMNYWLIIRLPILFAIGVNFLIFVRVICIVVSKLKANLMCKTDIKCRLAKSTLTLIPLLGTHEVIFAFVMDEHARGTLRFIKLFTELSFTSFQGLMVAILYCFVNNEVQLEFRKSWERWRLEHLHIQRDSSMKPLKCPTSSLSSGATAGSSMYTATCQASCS
Sequence of human GLP1-R (P43220 24-463): as above

As a reminder, the pEC50 is −log10 of the EC50, conventionally taken in molar units. With “H-Y[Aib]QGTFTSDYSI[αMeL]LDKQAAK([AEEA-AEEA-γGlu-C20 diacid])QFVEWLIA[Aib]GPSSGEPPPAEG-NH2 [Example 334]”, the pEC50 at human GLP1-R (setting [6]) was 7.55; at hGLP-1R [1] (setting [7]), 9.15; at hGIPR [3] (setting [8]), 9.65; on hGLP-1R [4] (setting [9]), 6.77; at human GcgR (read-out: cAMP Rel EC50, hGcgR) it was 5.68; on hGcgR (setting [10]), 8.17. Moreover, the pEC50 on hGIPR [5] (read-out: cAMP Rel EC50, hGIPR) is 7.14. In addition, the “Internalization % TOP” value on human GLP1-R was 96.8%. In addition, the “Body weight (%)” value in assay [2] (10 nmol/kg SC Q3D, 14 days) is listed as 84.78 +/− 2.74**** %.

For “H-Y[Aib]QGTFTSDFSK[αMeL]LDKK([AEEA-γGlu-C20 diacid])AQQAFIEYLLA[Aib]GPSSGAPPPSEG-NH2 [Example 30]”, the pEC50 on human GLP1-R was 7.15; at hGLP-1R [1] it was 8.50; on hGIPR [3] it was 9.61; at hGLP-1R [4], 6.09; at human GcgR it was 6.01; at hGcgR, 8.28. Besides, on hGIPR [5], the pEC50 was 7.14. For the same substance, on human GLP1-R, the “Internalization % TOP” value was 72.8%. Further, the “Body weight (%)” value in assay [2] (10 nmol/kg SC Q3D, 14 days) is 90.12 +/− 0.30** %.

Consider “H-Y[Aib]QGTFTSD[4Pal]SR[αMeL]LDKK([AEEA-γGlu-C18 diacid])AQ[Aib]AFIEYLLE[Aib]GESSGAPPPSGS-NH2 [Example 132]”, for which the pEC50 at human GLP1-R (setting [6]) is 7.14; on hGLP-1R [1] (setting [7]), 8.24; on hGIPR [3] (setting [8]), 9.68; at hGLP-1R [4] (setting [9]), 6.08; at human GcgR (read-out: cAMP Rel EC50, hGcgR) it was 6.20; on hGcgR (setting [10]), 8.58. On hGIPR [5] (read-out: cAMP Rel EC50, hGIPR), the pEC50 is 7.59. In addition, the “Internalization % TOP” value at human GLP1-R worked out at 67.2%. Besides, the “Body weight (%)” value in assay [2] (10 nmol/kg SC Q3D, 14 days) is 98.66 +/− 0.47%.

In the case of “H-Y[Aib]QGT[αMePhe(2-F)]TSD[4Pal][αMeS]I[αMeL]LD[Orn]K([AEEA-AEEA-γGlu-C18 diacid])AQ[Aib][Orn]FI[dE][αMeY]LIEGGPSSGEPPPSEG-NH2 [Example 490]”, the pEC50 is 9.74 on hGLP-1R [1] (read-out: Relative cAMP EC50, hGLP-1R); 10.80 on hGIPR [3] (read-out: Relative cAMP EC50, hGIPR); 8.01 at hGLP-1R [4] (setting [9]); 6.58 at human GcgR (read-out: cAMP Rel EC50, hGcgR); 8.52 on hGcgR (read-out: Relative cAMP EC50, hGcgR); 9.06 at hGIPR [5] (read-out: cAMP Rel EC50, hGIPR). For the same substance, in assay [2] (10 nmol/kg SC QD, 9 days), the “Body weight (%)” value is on record as 80.75 ± 3.23 %.

Turning to “H-Y[Aib]QGTFTSDFS[Orn][αMeL]LDKK([AEEA-γGlu-C18 diacid])AQ[Aib]AFIEWLLEGGESSGAPPPEGS-NH2 [Example 125]”, the pEC50 at human GLP1-R (setting [6]) was 7.06; at hGLP-1R [1] (setting [7]) it was 8.39; on hGIPR [3] (setting [8]), 9.30; at hGLP-1R [4] (setting [9]), 5.98; at human GcgR (read-out: cAMP Rel EC50, hGcgR), 6.05; on hGcgR (setting [10]), 8.40. Moreover, the pEC50 on hGIPR [5] (read-out: cAMP Rel EC50, hGIPR) was 7.17. Also, on human GLP1-R, the “Internalization % TOP” value was 42.6%. In assay [2] (10 nmol/kg SC Q3D, 14 days), the “Body weight (%)” value was 97.90 +/− 0.32%.

As for “H-Y[Aib]QGTFTSDFSK[αMeL]LDKK([AEEA-γGlu-C20 diacid])AQ[Aib]AFIEWLLAGGPSSGEPPPSGE-NH2 [Example 21]”, the pEC50 was 7.06 on human GLP1-R (setting [6]); 8.57 on hGLP-1R [1] (setting [7]); 9.66 on hGIPR [3] (setting [8]); 6.49 on hGLP-1R [4] (setting [9]); 5.82 on human GcgR (read-out: cAMP Rel EC50, hGcgR); 7.91 at hGcgR (setting [10]). Moreover, the pEC50 at hGIPR [5] (read-out: cAMP Rel EC50, hGIPR) was 7.54. The “Internalization % TOP” value on human GLP1-R is reported as 72.5%. In assay [2] (10 nmol/kg SC Q3D, 14 days), the “Body weight (%)” value is 83.70 +/− 0.86**** %.

On to “H-Y[Aib]QGTFTSDFSK[αMeL]LDKK([AEEA-γGlu-C18 diacid])AQ[Aib]AFIEYLLAGGPSSGEPPPSGE-NH2 [Example 23]”, for which the pEC50 was 7.29 on human GLP1-R (setting [6]); 8.53 at hGLP-1R [1] (setting [7]); 9.75 at hGIPR [3] (setting [8]); 6.51 on hGLP-1R [4] (setting [9]); 6.24 on human GcgR (read-out: cAMP Rel EC50, hGcgR); 8.29 on hGcgR (setting [10]). For the same substance, the pEC50 on hGIPR [5] (read-out: cAMP Rel EC50, hGIPR) is 7.59. The “Internalization % TOP” value at human GLP1-R worked out at 67.2%. In addition, the “Body weight (%)” value in assay [2] (10 nmol/kg SC Q3D, 14 days) is listed as 80.86 +/− 1.25**** %.

Turning to “H-Y[Aib]QGT[αMePhe(2-F)]TSDYSKLLDKIAQK([AEEA-γGlu-C20 diacid])AFIEYLIEGGPSSGAPPPSEG-NH2 [Example 339]”, the pEC50 at hGLP-1R [1] (setting [7]) was 8.97; on hGIPR [3] (setting [8]) it was 10.00; on hGLP-1R [4] (setting [9]), 6.72; at human GcgR (read-out: cAMP Rel EC50, hGcgR), 5.82; on hGcgR (setting [10]), 8.17; on hGIPR [5] (read-out: cAMP Rel EC50, hGIPR), 7.54. The “Body weight (%)” value in assay [2] (10 nmol/kg SC Q3D, 14 days) is reported as 82.36 +/− 3.01**** %.

The values are drawn from patent US20240270821A1, “GIP/GLP1/GCG TRI-RECEPTOR AGONISTS AND USES THEREOF” (priority 2023, published 2024).
